Test results: ChEMBL document CHEMBL1126105, “Dihydroxynitrobenzaldehydes and hydroxymethoxynitrobenzaldehydes: synthesis and biological activity as catechol-O-methyltransferase inhibitors” (J Med Chem, 1992)

Key:
[1] = biological target: T1, Catechol O-methyltransferase (Sus scrofa, UniProt Q99028); test: In vitro inhibition of Catechol-O-methyltransferase (COMT) from isolated partially purified pig liver enzyme
T1 sequence (Q99028 whole entry): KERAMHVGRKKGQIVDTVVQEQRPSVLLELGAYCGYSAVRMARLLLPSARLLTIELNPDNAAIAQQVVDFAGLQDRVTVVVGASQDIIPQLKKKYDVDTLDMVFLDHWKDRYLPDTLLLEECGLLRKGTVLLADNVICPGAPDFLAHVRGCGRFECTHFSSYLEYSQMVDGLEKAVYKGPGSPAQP

[2] = biological target: T2, Catechol O-methyltransferase (Sus scrofa) (UniProt Q99028)
T2 sequence (whole entry): T1 sequence (Q99028 whole entry)
Description: (§1) Compound was evaluated for reversible inhibition of Catechol O-methyltransferase with saturating AdoMet and variable catechol as substrate (mixed inhibition)

[3] = biological target: T2, Catechol O-methyltransferase (Sus scrofa); remark: listed apart in the source
Description: as §1

[4] = biological target: T2, Catechol O-methyltransferase (Sus scrofa); remark: listed apart in the source
[5] = biological target: T2, Catechol O-methyltransferase (Sus scrofa); test: Compound was evaluated for reversible inhibition of Catechol O-methyltransferase with variable AdoMet and saturating catechol as substrate (uncompetitive inhibition)
[6] = biological target: T2, Catechol O-methyltransferase (Sus scrofa); test: Compound was evaluated for reversible inhibition of COMT with saturating AdoMet and variable catechol as substrate (mixed inhibition)
[7] = biological target: T1, Catechol O-methyltransferase; test: Compound was evaluated for reversible inhibition of Catechol O-methyltransferase with saturating AdoMet and variable catechol as substrate (Non-competitive inhibition)
[8] = biological target: T1, Catechol O-methyltransferase; test: Compound was evaluated for reversible inhibition of Catechol O-methyltransferase with variable AdoMet and saturating catechol as substrate (uncompetitive inhibition)

| Compound | IC50 [1] | KIs [2] | KII [3] | KII [4] | KIs [5] | KII [6] | Ki [7] | Ki [8] |
| --- | --- | --- | --- | --- | --- | --- | --- | --- |
| O=Cc1cc(O)c(O)cc1[N+](=O)[O-] | 8.5 µM | 2.69 µM | 921 nM | – | – | – | – | – |
| O=Cc1cc([N+](=O)[O-])cc(O)c1O | 2.1 µM | 1.2 µM | 231 nM | – | 7770 nM | – | – | – |
| COc1c(O)cc(C=O)cc1[N+](=O)[O-] | 34 µM | – | – | – | – | – | 17.2 µM | 13.5 µM |

Results, then the compound that gave them:

| IC50 [1] | KIs [2] | KII [3] | KII [4] | KIs [5] | KII [6] | Ki [7] | Ki [8] | Compound |
| --- | --- | --- | --- | --- | --- | --- | --- | --- |
| 2 µM | 0.816 µM | 138 nM | 1.38e-07 µM | – | – | – | – | O=Cc1cc(O)c(O)c([N+](=O)[O-])c1 [3,4-DIHYDROXY-5-NITROBENZALDEHYDE] |
| 1.5 µM | 0.497 µM | – | – | 678 nM | 168 nM | – | – | O=Cc1ccc(O)c(O)c1[N+](=O)[O-] |
| 1.5 µM | 0.478 µM | 145 nM | – | 538 nM | – | – | – | O=Cc1ccc([N+](=O)[O-])c(O)c1O |
| 10 µM | 4.77 µM | 909 nM | – | – | – | – | – | O=Cc1c([N+](=O)[O-])ccc(O)c1O |
